Data set [1] has as its system human cancer cell lines (MCF-7, MDA-MB-231, Hep G2, Hep 3B, A549). To be noted: compound derived from Thelypteris torresiana; Planta Medica 71:867-870, 2005; cited from earlier work.
For the next data set, the system named is human cancer cell lines. Briefly: in vitro cytotoxic activities against several human cancer lines (panel summary). To be noted: for cytotoxic activity against cancer cell lines (in words): especially Hep3B and MDA-MB-231. Format: cell-based. The method, then: (§1) Human liver (HepG2 and Hep3B), breast (MCF-7 and MDA-MB-231), and lung (A549) cancer cell lines were propagated in RPMI-1640 medium supplement with 10% (v/v) FBS, 100 U/mL penicillin and 100 µg/mL streptomycin at 37° C. in a humidified atmosphere of 5% CO2 and 95% air. The culturing medium is changed every three days. Upon confluency, cells were subcultured to confluency, and used for experiments. The experimental period is determined according to the aim of experiment.
(§2) Cytotoxicity is measured by the MTT calorimetric method. Cells were seeded at densities of 5,000-10,000 cells/well in 96-well tissue culture plates. On day two, cells are treated with test compounds for another 72 hrs. After drug treatment, attached cells were incubated with MTT (0.5 mg/mL) for 1 hr and subsequently solubilized in DMSO. The absorbency at 550 nm is then measured using a microplate reader. The IC50 is the concentration of agent that reduces the cell viability by 50% under the experimental conditions, and the cytotoxic compound, Doxorubicin, is used as a positive control.
It is known that both the protoapigenone compound and its derivatives synthesized by a chemical method have cytotoxic effect against cancer cells, similar to nature protoapigenone compound extracted from a plant.

The next data set deals with HepG2. Nature of the data set: MTT cytotoxicity assay, HepG2. Format: cell-based, Human. To be noted: for IC50 HepG2: human liver cancer cells, MTT, 72 hrs treatment. As for the experimental part: as §1, §2
On the technique in general: Tetrazolium dyes change colour on reduction, which living cells bring about.

A further data set deals with MCF-7. Briefly: MTT cytotoxicity assay, MCF-7. Format: cell-based. To be noted: human breast cancer cells, 72 hrs treatment. As for the experimental part: as §1, §2
For the next data set, the system named is MDA-MB-231. Nature of the data set: MTT cytotoxicity assay, MDA-MB-231. The format is cell-based. The note with it: human breast cancer cells, 72 hrs treatment. As for the experimental part:
as §1, §2

The next data set deals with Hep3B. Nature of the data set: MTT cytotoxicity assay, Hep3B. To be noted: human liver cancer cells, 72 hrs treatment. The format is cell-based. As for the experimental part:
as §1, §2

The test system of the next data set is A549. Nature of the data set: MTT cytotoxicity assay, A549. Format: cell-based. The note with it: human lung cancer cells, 72 hrs treatment. As for the experimental part:
as §1, §2

This is an account of results in patent publication US7842721B2, “Composition for treating cancer cells and synthetic method for the same” (Kaohsiung Medical University, priority 2007, dated 2010).

Values after ≈ are worked out from the molar mass of the structure shown. A value given as a limit tells only on which side of the number the result lay.

As for `O=C1C=CC(O)(c2cc(=O)c3c(O)cc(O)cc3o2)C=C1` [protoapigenone], the “cytotoxic activities to human cancer cell lines (in words)” value in data set [1] was “strong cytotoxic activities”.
For the compound `COc1cc(O)c2c(=O)cc(C3(O)C=CC(=O)C=C3)oc2c1` [Compound 18a, 5-hydroxy-2-(1-hydroxy-4-oxocyclohexa-2,5-dienyl)-7-methoxy-4H-chromen-4-one], in the data set on human cancer cell lines, the “cytotoxic activity against cancer cell lines (in words)” value (“cytotoxic activity” below) is recorded as “significant cytotoxic activity”. Also, in the data set on human cancer cell lines (five cancer cell lines), the “potency against all five cancer cell lines, among the derivatives (in words)” value was “highest potency”. The “activity against the HepG2 human liver cancer cell line (in words)” value with HepG2 (compared with most analogs) is listed as “significantly enhanced activity”.
As to `O=C1C=CC(O)(c2cc(=O)c3c(ccc4ccccc43)o2)C=C1` [Compound 15a, 3-(1-hydroxy-4-oxocyclohexa-2,5-dienyl)-1H-benzo[f]chromen-1-one], in the data set with human cancer cell lines, the “cytotoxic activity” value is given as “significant cytotoxic activity”.
Take `COC1(c2cc(=O)c3ccccc3o2)C=CC(=O)C=C1` [Compound 8b, 1′-methoxyprotoflavonoen]: the “IC50 MCF-7” value in the data set with MCF-7 stood at 2.14 µg/mL (≈ 7.98 µM). For the same compound, the “IC50 MDA-MB-231” value with MDA-MB-231 stood at 1.47 µg/mL (≈ 5.48 µM). Further, the “IC50 Hep3B” value with Hep3B worked out at 1.45 µg/mL (≈ 5.41 µM). For the same compound, the “IC50 HepG2” value in the data set with HepG2 was determined as 10.95 µg/mL (≈ 40.8 µM). Also, the “IC50 A549” value in the data set with A549 was above 20 µg/mL.
Consider `O=C1C=CC(O)(c2cc(=O)c3ccccc3o2)C=C1` [Compound 8a, 2-(1-hydroxy-4-oxocyclohexa-2,5-dienyl)-4H-chromen-4-one], for which the “cytotoxic activity” value with human cancer cell lines is reported as “significant cytotoxic activity”.
As for `COC1(c2cc(=O)c3c(C)cccc3o2)C=CC(=O)C=C1` [Compound 10b, 1′-methoxy-5-methylprotoflavonone], the “IC50 MCF-7” value with MCF-7 amounted to 1.55 µg/mL (≈ 5.49 µM). Besides, the “IC50 MDA-MB-231” value in the data set on MDA-MB-231 is 0.54 µg/mL (≈ 1.91 µM). In addition, the “IC50 Hep3B” value in the data set on Hep3B stood at 0.66 µg/mL (≈ 2.34 µM). Besides, the “IC50 HepG2” value in the data set with HepG2 was 7.64 µg/mL (≈ 27.1 µM). The “IC50 A549” value in the data set with A549 worked out at 16.36 µg/mL (≈ 58 µM).
With `O=C1C=CC(O)(c2cc(=O)c3c(O)cccc3o2)C=C1` [Compound 10a, 2-(1-hydroxy-4-oxocyclohexa-2,5-dienyl)-5-hydroxy-4H-chromen-4-one], in the data set on human cancer cell lines, the “cytotoxic activity” value is “significant cytotoxic activity”.
